Experimental findings from patent US20200405696A1, “INHIBITORS OF INDOLEAMINE 2,3-DIOXYGENASE AND/OR TRYPTOPHAN 2,3-DIOXYGENASE” (IDORSIA PHARMACEUTICALS LTD, priority 2018, published 2020) are described below.

For assay [1], the target named is T1, Recombinant human TDO comprising amino acids 19-407 (Homo sapiens, UniProt P48775).
T1 construct: Recombinant human TDO comprising amino acids 19-407 with a N-terminal hexahistidine tag; hexahistidine (His6) (N); made in house; host or cells: E. coli
Briefly: TDO2 enzymatic assay (NFK quantified by LCMS). The settings on record: 15 nM enzyme, 200 μM L-tryptophan, pH7, 30 minutes pre-incubation at RT; mean values when measured multiple times; read-out: hTDO activity (IC50 in nM). The format is biochemical. In outline: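 NFK formed over 30 min at RT from 200 μM L-tryptophan was measured by LCMS, normalized to d5-tryptophan, after compound (0.5 nM–10 μM, duplicates, 0.6% DMSO) was preincubated 30 min with 15 nM recombinant His-tagged TDO 19-407 in phosphate buffer pH 7. IC50 from four-parameter logistic fit; repeats averaged.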

Assay [2] addresses T2, Recombinant full-length human IDO1 (Homo sapiens, UniProt P14902).
T2 construct: Recombinant full-length human IDO1 with a N-terminal hexahistidine tag; hexahistidine (His6) (N); made in house; host or cells: E. coli
Briefly: IDO1 enzymatic assay (NFK quantified by LCMS). The format is biochemical. The settings on record: 2 nM enzyme, 5 μM L-tryptophan, pH6.5, 30 minutes pre-incubation at RT; mean values when measured multiple times; read-out: hIDO activity (IC50 in nM). In outline:
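His-tagged human IDO1 (2 nM) in pH 6.5 phosphate buffer with ascorbate, methylene blue and catalase was preincubated with compound (10 μM–0.5 nM, 0.6% DMSO) for 30 min at RT. The reaction then ran with 5 μM L-Trp for 30 min. NFK was measured by LCMS against a d5-Trp standard, and IC50 was obtained by four-parameter fit.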

T1 sequence (P48775 19-406 limits assumed): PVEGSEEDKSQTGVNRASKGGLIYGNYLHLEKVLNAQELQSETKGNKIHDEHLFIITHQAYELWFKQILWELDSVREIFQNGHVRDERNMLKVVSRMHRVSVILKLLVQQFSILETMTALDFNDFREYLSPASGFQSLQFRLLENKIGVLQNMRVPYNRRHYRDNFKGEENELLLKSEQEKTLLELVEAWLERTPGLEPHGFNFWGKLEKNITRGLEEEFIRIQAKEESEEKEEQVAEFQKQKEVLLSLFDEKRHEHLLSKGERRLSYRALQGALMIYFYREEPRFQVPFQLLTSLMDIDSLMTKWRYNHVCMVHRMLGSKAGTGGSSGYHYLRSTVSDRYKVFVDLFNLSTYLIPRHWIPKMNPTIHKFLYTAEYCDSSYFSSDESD
T2 sequence (P14902 whole entry): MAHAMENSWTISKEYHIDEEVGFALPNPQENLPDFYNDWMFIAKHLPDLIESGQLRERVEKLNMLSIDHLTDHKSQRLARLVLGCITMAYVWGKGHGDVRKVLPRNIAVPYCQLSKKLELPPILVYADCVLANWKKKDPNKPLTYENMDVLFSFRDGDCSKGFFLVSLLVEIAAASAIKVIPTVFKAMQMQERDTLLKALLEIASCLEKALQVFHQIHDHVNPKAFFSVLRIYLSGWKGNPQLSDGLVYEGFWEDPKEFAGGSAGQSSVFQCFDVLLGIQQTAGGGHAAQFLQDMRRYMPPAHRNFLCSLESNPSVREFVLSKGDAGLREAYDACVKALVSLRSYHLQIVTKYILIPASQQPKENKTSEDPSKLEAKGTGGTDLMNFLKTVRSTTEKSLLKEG

For orientation: IC50 means the point on the concentration scale where inhibition reaches its midpoint. For the compound `OC(c1ccc(-c2ccc3[nH]ccc3c2)s1)c1c(C2CC2)sc2cncn12` (racemic) [Example 176, rac-(2-Cyclopropyl-imidazo[5,1-b]thiazol-3-yl)-[5-(1H-indol-5-yl)-thiophen-2-yl]-methanol], the IC50 in assay [1] was > 10200 nM; in assay [2], 260 nM.

As to `COc1ccc(-c2ccc(C(O)c3c(C4CC4)sc4cncn34)s2)cc1` (racemic) [Example 161, rac-(2-Cyclopropyl-imidazo[5,1-b]thiazol-3-yl)-[5-(4-methoxy-phenyl)-thiophen-2-yl]-methanol], the IC50 in assay [1] was > 10200 nM; in assay [2], 257 nM.

For `OC(c1cn(-c2ccccc2)nn1)c1c(C(F)(F)F)sc2cncn12` (racemic) [Example 133, rac-(1-Phenyl-1H-[1,2,3]triazol-4-yl)-(2-trifluoromethyl-imidazo[5,1-b]thiazol-3-yl)-methanol], the IC50 in assay [1] was > 10200 nM; in assay [2], 24.2 nM.

As to `OC(c1cn(-c2ccc3cc[nH]c3c2)nn1)c1c(C2CC2)sc2cncn12` (racemic) [Example 21, rac-(2-Cyclopropyl-imidazo[5,1-b]thiazol-3-yl)-[1-(1H-indol-6-yl)-1H-[1,2,3]triazol-4-yl]-methanol], the IC50 in assay [1] is > 10200 nM; in assay [2], 18.1 nM.

With `CCOc1ccc(-n2cc(C(O)c3c(C)sc4cncn34)nn2)cn1` (racemic) [Example 55, rac-[1-(6-Ethoxy-pyridin-3-yl)-1H-[1,2,3]triazol-4-yl]-(2-methyl-imidazo[5,1-b]thiazol-3-yl)-methanol], the IC50 in assay [1] was > 10200 nM; in assay [2], 205 nM.

Turning to `Oc1ccccc1Cn1cc(C(O)c2c(C3CC3)sc3cncn23)nn1` (racemic) [Example 305, rac-2-{4-[(2-Cyclopropyl-imidazo[5,1-b]thiazol-3-yl)-hydroxy-methyl]-[1,2,3]triazol-1-ylmethyl}-phenol], the IC50 in assay [1] is > 10200 nM; in assay [2], 71.3 nM.

For the compound `O=c1[nH]c2ccc(-n3cc(C(O)c4c(C5CC5)sc5cncn45)nn3)cc2[nH]1` (racemic) [Example 194, rac-5-{4-[(2-Cyclopropyl-imidazo[5,1-b]thiazol-3-yl)-hydroxy-methyl]-[1,2,3]triazol-1-yl}-1,3-dihydro-benzoimidazol-2-one], the figures for the IC50 in assay [1] and in assay [2] were > 10200 nM and 70.4 nM, respectively.

For the compound `COc1ccc(-n2nnc(C(O)c3c(C4CC4)sc4cncn34)c2C(C)(C)C)cc1` (racemic) [Example 274, rac-[5-tert-Butyl-1-(4-methoxy-phenyl)-1H-[1,2,3]triazol-4-yl]-(2-cyclopropyl-imidazo[5,1-b]thiazol-3-yl)-methanol], the IC50 in assay [1] was > 10200 nM; in assay [2] it was 36 nM.
